Laboratory results taken from patent publication US11452303B2, “Methods for feeding sows and for improving the health of young piglets” (PURINA ANIMAL NUTRITION LLC, priority 2003, dated 2022).
“And” between values parts separate entries of the source, which are not always exact repeats. Identical values can stand only once. Marks after values point to notes of the source that are not given here.

Assays:
nursing piglets = assay: Litter performance: number of nursing piglets and piglet mortality in litters of lactating sows fed sorbitol; assay type: in vivo, swine
Experimental: (§1) In this example, sixty-two (62) lactating sows were subjected to one of three different feeding trials that each began shortly (within 48 hours) after the lactating sows gave birth to piglets (i.e.: shortly after farrowing) and extended to the day the different piglets were wearied from the respective sows. The purpose of this example was to evaluate the effect of feeding lactating sows varying amounts of sugar alcohol, or no sugar alcohol, on subsequent piglet litter performance parameters, such as mortality prior to weaning and litter weight gain during the pre-weaning period. Sorbitol was used as the sugar alcohol in this example.
Immediately after farrowing, twenty sows were randomly assigned to the Control, twenty-one sows were randomly assigned to Trial A, and twenty-one sows were randomly assigned to Trial B. Sow assignment did take into account parity (number of litters per sow) to artificially balance parity across the Control, Trial A, and Trial B. The different sows of the Control, Trial A, and Trial B had parities ranging from one to more than two. Additionally, litter size was equalized between the different sows of the Control, Trial A, and Trial B within forty-eight hours after farrowing to assure that all sows, whether assigned to the Control, Trial A or Trial B, had the same, or about the same, number of nursing piglets. The reason for waiting forty-eight hours before cross-fostering in this fashion was to assure each piglet received colostrum from their original dam.
(§2) In Trial A, each of the lactating sows received the control feed plus about twenty-six grams of sorbitol per day. In Trial B, each of the lactating sows received the control feed plus about fifty-two grams of sorbitol per day.
The lactating sows of both Trial A and Trial B received the same daily amount of control feed that was fed to the lactating sows of the Control with the exception that two pounds of the control feed provided daily to the lactating sows of both Trial A and Trial B were replaced with two pounds of a sorbitol-coated control feed (hereinafter referred to as “top-dressed control feed”). To create the top-dressed control feed, liquid sorbitol was heated to a temperature ranging from about 100° F. and about 120° F. The heated liquid sorbitol was then sprayed over a batch of about three hundred to four hundred pounds of the control feed and thoroughly mixed to form the top-dressed control feed. Following mixing, the top-dressed control feed was divided and separately bagged in two pound increments. An appropriate ratio of the liquid sorbitol to the control feed was selected for the top-dressed control feed destined for the Trial A lactating sows to assure that each two pound allotment of the control feed destined for the Trial A lactating sows included about twenty-six grams of sorbitol. Likewise, an appropriate ratio of the liquid sorbitol to the control feed was selected for the top-dressed control feed destined for the Trial B lactating sows to assure that each two pound allotment of the top-dressed control feed destined for the Trial B lactating sows included about fifty-two grams of sorbitol.
During the feeding trial of this example, the top dressed control feed was applied three times daily to the balance of the control feed being provided individually at that feeding to the individual lactating sows of Trial A and Trial B. Approximately one-third of the top-dressed control feed was provided to the sows in the morning feeding, approximately one-third of the top dressed control feed was provided to the lactating sows in the noon feeding, and the remaining approximate one-third of the top-dressed control feed was provided to the sows in the afternoon feeding. The twenty-one sows of Trial A each received a total of about two pounds of the top-dressed control feed containing about 26 grams of sorbitol per day. […]

[1] = Litter performance: total litter live weight and mean individual piglet weight; assay type: in vivo, swine
Experimental: In each of the Examples provided below, each piglet was weighed two days after birth, fourteen days after birth, and again at weaning. All data that is provided in Tables 4-9 below for the lactating sows is based upon individual data for each lactating sow, then-present, as least square means of the particular data over all lactating sows present in the test at the time the particular data was recorded. All data that is provided in Tables 4-9 below for the piglets is based upon data for each litter of piglets, then-present, as least square means of the particular data over all piglets of the litter present in the test at the time the particular data was recorded. Data for parameters presented in Tables 4-9 was analyzed using the general linear model (GLM) statistical procedure of SAS™ statistical analysis software for a randomized complete block design that included both the particular Iced regimen and the week of the test period in the model statement. The SAS™ statistical analysis software is available from SAS Institute, Inc. of Cary, N.C. Additionally, all data was analyzed to determine the mean of the data for each variable under consideration during the collection period for the particular data.
as §1, §2
Additionally, the collective body weights of the piglets assigned to each lactating sow of the three different trials were measured and recorded on day two post-farrowing (about forty-eight hours after farrowing), on day fourteen post-farrowing (fourteen days after farrowing), and on the day the piglets were weaned. The mean body weight values for each individual piglet of the three different trials were derived for each piglet individually from the weight data recorded for each piglet litter by dividing the collective litter weight determined for a particular litter by the total number of piglets then-present in the litter to attain the mean individual piglet weights on day two post-farrowing (about forty-eight hours after farrowing), on day fourteen post-farrowing (fourteen days after farrowing), and on the day the piglets were weaned.
In this example, the data from Example 1 was analyzed to remove data attributable to sows with a parity of only one. Parity refers to the number of litters a sow has previously given birth to during its life. Gilts or first-parity sows typically consume approximately fifteen to twenty percent less feed during lactation and also typically produce less milk than sows with parities greater than one. The litters of parity one sows also tend to have lower weaning weights and more health problems than the litters of sows with parities greater than one. The purpose of looking at the Example 1 data, as re-analyzed to remove the effect of parity one data, is to determine the influence of natural differences in feed intake and litter performance of parity one sows on the data presented in Example 1 above. Removing the data contributed by the […] parity one sows in Example 1, left the Control with fourteen sows of parity two or higher, left Trial A with sixteen sows of parity two or higher, and left Trial B with sixteen sows of parity two or higher. […]

[2] = Trial A, 26 grams sorbitol per day, Parity ≥ 1, At Weaning
[3] = Trial A, 26 grams sorbitol per day, Parity ≥ 1, Day 14
[4] = Trial A, 26 grams sorbitol per day, Parity ≥ 1, day one post-farrowing to weaning
[5] = Trial A, 26 grams sorbitol per day, Parity ≥ 1, day one to day fourteen post-farrowing
[6] = Trial A, 26 grams sorbitol per day, Parity ≥2, At Weaning
[7] = Trial A, 26 grams sorbitol per day, Parity ≥2, Day 2
[8] = Trial A, 26 grams sorbitol per day, Parity ≥2, Day 14
[9] = Trial A, 26 grams sorbitol per day, Parity ≥ 2, day one post-farrowing to weaning
[10] = Trial A, 26 grams sorbitol per day, Parity ≥ 2, day one to day fourteen post-farrowing
[11] = Trial B, 52 grams sorbitol per day, Parity ≥ 1, At Weaning
[12] = Trial B, 52 grams sorbitol per day, Parity ≥ 1, Day 14
[13] = Trial B, 52 grams sorbitol per day, Parity ≥ 1, day fourteen post-farrowing to weaning
[14] = Trial B, 52 grams sorbitol per day, Parity ≥ 1, day one post-farrowing to weaning
[15] = Trial B, 52 grams sorbitol per day, Parity ≥ 1, day one to day fourteen post-farrowing
[16] = Trial B, 52 grams sorbitol per day, Parity ≥2, At Weaning
[17] = Trial B, 52 grams sorbitol per day, Parity ≥2, Day 2
[18] = Trial B, 52 grams sorbitol per day, Parity ≥2, Day 14
[19] = Trial B, 52 grams sorbitol per day, Parity ≥ 2, day one post-farrowing to weaning
[20] = Trial B, 52 grams sorbitol per day, Parity ≥ 2, day one to day fourteen post-farrowing
[21] = Trial A, 26 grams sorbitol per day, Parity ≥ 1, Day 2
[22] = Trial B, 52 grams sorbitol per day, Parity ≥ 1, Day 2

For `OC[C@@H](O)[C@@H](O)[C@H](O)[C@@H](O)CO` [sorbitol], the “Number of Nursing Piglets” value (nursing piglets; Trial A, 26 grams sorbitol per day to sows, Parity ≥ 1, Day 2) was 10.57, the “Number of Nursing Piglets” value (nursing piglets; [2]) was 9.95 and the “Percentage Piglet Mortality” value (nursing piglets; Trial A, 26 grams sorbitol per day, Parity ≥ 1, Day 1 to Day 14) was 3.99% and 3.99^c percent. The “Percentage Piglet Mortality” value (nursing piglets; Trial A, 26 grams sorbitol per day, Parity ≥ 1, Day 1 to Weaning) was 5.69% and 5.69^c percent, the “Number of Nursing Piglets” value (nursing piglets; [3]) was 10.14 and the “Percentage Piglet Mortality” value (nursing piglets; Trial A, 26 grams sorbitol per day, Parity ≥ 1, Day 14 to weaning) was 1.74^d percent. For the same compound, the “piglet mortality drop versus Control” value (nursing piglets; [4]) was 47.07%, the “piglet mortality percentage drop versus Control” value (nursing piglets; [4]) was 5.06 percentage points and the “piglet mortality drop versus Control” value (nursing piglets; [5]) was 54.97%. The “piglet mortality percentage drop versus Control” value (nursing piglets; [5]) was 4.87 percentage points, the “Number of Nursing Piglets” value (nursing piglets; [6]) was 10.01 and the “Percentage Piglet Mortality” value (nursing piglets; Trial A, 26 grams sorbitol per day, Parity ≥2, Day 1 to Day 14) was 3.52% and 3.52^c percent. The “Percentage Piglet Mortality” value (nursing piglets; Trial A, 26 grams sorbitol per day, Parity ≥2, Day 1 to Weaning) was 4.69% and 4.69^c percent, the “Number of Nursing Piglets” value (nursing piglets; [7]) was 10.51 and the “Number of Nursing Piglets” value (nursing piglets; [8]) was 10.14. For the same compound, the “Percentage Piglet Mortality” value (nursing piglets; Trial A, 26 grams sorbitol per day, Parity ≥2, Day 14 to weaning) was 1.23%, the “piglet mortality drop versus Control” value (nursing piglets; [9]) was 63.27% and the “piglet mortality percentage drop versus Control” value (nursing piglets; [9]) was 8.08 percentage points. The “piglet mortality drop versus Control” value (nursing piglets; [10]) was 67.20%, the “piglet mortality percentage drop versus Control” value (nursing piglets; [10]) was 7.21 percentage points and the “Number of Nursing Piglets” value (nursing piglets; Trial B, 52 grams sorbitol per day to sows, Parity ≥ 1, Day 2) was 10.50. For the same compound, the “Number of Nursing Piglets” value (nursing piglets; [11]) was 10.03, the “Percentage Piglet Mortality” value (nursing piglets; Trial B, 52 grams sorbitol per day, Parity ≥ 1, Day 1 to Day 14) was 4.61% and 4.61^e percent and the “Percentage Piglet Mortality” value (nursing piglets; Trial B, 52 grams sorbitol per day, Parity ≥ 1, Day 1 to Weaning) was 4.60% and 4.60^c percent. For the same compound, the “Number of Nursing Piglets” value (nursing piglets; [12]) was 10.0, the “Percentage Piglet Mortality” value (nursing piglets; Trial B, 52 grams sorbitol per day, Parity ≥ 1, Day 14 to weaning) was 0.00% and 0.00^e percent and the “piglet mortality drop versus Control” value (nursing piglets; [13]) was 100%. For the same compound, the “piglet mortality percentage drop versus Control” value (nursing piglets; [13]) was 2.09 percentage points, the “piglet mortality drop versus Control” value (nursing piglets; [14]) was 57.21% and the “piglet mortality percentage drop versus Control” value (nursing piglets; [14]) was 6.15 percentage points. For the same compound, the “piglet mortality drop versus Control” value (nursing piglets; [15]) was 47.97%, the “piglet mortality percentage drop versus Control” value (nursing piglets; [15]) was 4.25 percentage points and the “Number of Nursing Piglets” value (nursing piglets; [16]) was 10.02. The “Percentage Piglet Mortality” value (nursing piglets; Trial B, 52 grams sorbitol per day, Parity ≥2, Day 1 to Day 14) was 5.68% and 5.68^c percent, the “Percentage Piglet Mortality” value (nursing piglets; Trial B, 52 grams sorbitol per day, Parity ≥2, Day 1 to Weaning) was 5.71% and 5.71^c percent and the “Number of Nursing Piglets” value (nursing piglets; [17]) was 10.62. For the same compound, the “Number of Nursing Piglets” value (nursing piglets; [18]) was 10.02, the “Percentage Piglet Mortality” value (nursing piglets; Trial B, 52 grams sorbitol per day, Parity ≥2, Day 14 to weaning) was 0.00% and the “piglet mortality drop versus Control” value (nursing piglets; [19]) was 55.29%. For the same compound, the “piglet mortality percentage drop versus Control” value (nursing piglets; [19]) was 7.06 percentage points, the “piglet mortality drop versus Control” value (nursing piglets; [20]) was 47.06% and the “piglet mortality percentage drop versus Control” value (nursing piglets; [20]) was 5.05 percentage points. For the same compound, the “Mean Weight of Individual Piglets” value [1, 2] was 14.80 pounds, the “Total Live Weight of Litter” value [1, 2] was 147.53^de pounds and the “Mean Weight of Individual Piglets” value [1, 21] was 4.11 pounds. For the same compound, the “Total Live Weight of Litter” value [1, 21] was 43.29 pounds, the “Mean Weight of Individual Piglets” value [1, 3] was 10.59 pounds and the “Total Live Weight of Litter” value [1, 3] was 107.85 pounds. The “Mean Weight of Individual Piglets” value [1, 6] was 15.02 pounds, the “Total Live Weight of Litter” value [1, 6] was 150.42^bc pounds and the “Mean Weight of Individual Piglets” value [1, 7] was 4.14 pounds. The “Total Live Weight of Litter” value [1, 7] was 43.37 pounds, the “Mean Weight of Individual Piglets” value [1, 8] was 10.82 pounds and the “Total Live Weight of Litter” value [1, 8] was 109.76 pounds. The “Mean Weight of Individual Piglets” value [1, 11] was 15.55 pounds, the “Total Live Weight of Litter” value [1, 11] was 154.81 pounds and 154.81^e pounds and the “Mean Weight of Individual Piglets” value [1, 22] was 3.90 pounds. For the same compound, the “Total Live Weight of Litter” value [1, 22] was 41.17 pounds, the “Mean Weight of Individual Piglets” value [1, 12] was 10.39 pounds and the “Total Live Weight of Litter” value [1, 12] was 104.39 pounds. The “Mean Weight of Individual Piglets” value [1, 16] was 16.03 pounds, the “Total Live Weight of Litter” value [1, 16] was 159.86 pounds and 159.86^c pounds and the “Mean Weight of Individual Piglets” value [1, 17] was 4.18 pounds. The “Total Live Weight of Litter” value [1, 17] was 44.48 pounds, the “Mean Weight of Individual Piglets” value [1, 18] was 10.87 pounds and the “Total Live Weight of Litter” value [1, 18] was 109.25 pounds.
